Test results taken from ChEMBL document CHEMBL3596184, “Prostate tumor specific peptide-peptoid hybrid prodrugs” (2015).
Numbered stars: 1 amine (or outer) side, 2 acyl side, 3 side chain; on linkers, the order of the positions; unused ones are H or OH. Square brackets hold non-standard residues; d marks the D form. Peptide text beside a SMILES is read from it. γGlu = O=C(O)[C@H](CCC(=O)[*:2])N[*:1]; Hyp = O=C(O)[C@@H]1C[C@@H](O)CN1; Nspe = C[C@H](NCC(=O)O)c1ccccc1; Chg = N[C@H](C(=O)O)C1CCCCC1; Nlys = NCCCCNCC(=O)O

Key:
Format in all cases: functional
LNCaP [1] = assay: Selectivity ratio of LC50 for human PC3 cells to LC50 for human LNCaP cells
PC-3 = assay: Cytotoxicity against human PC3 cells assessed as induction of cell death after 48 hrs by MTS assay; conditions: PC-3, 48 h, read-out: LC50 (the source's name)
LNCaP [2] = assay: Cytotoxicity against human LNCAP cells assessed as induction of cell death after 48 hrs by MTS assay; conditions: read-out: LC50 (the source's name)

SMILES | RatioLC50 (LNCaP [1]) | CC50 (PC-3) [µM] | CC50 (LNCaP [2]) [µM]
C[C@@H](c1ccccc1)N(CC(N)=O)C(=O)CN(C(=O)CN(CCCCN)C(=O)CN(C(=O)CN(C(=O)CN(CCCCN)C(=O)CN(C(=O)CN(C(=O)CN(CCCCN)C(=O)CN(C(=O)CN(C(=O)CN(CCCCN)C(=O)CC[C@H](N)C(=O)O)[C@@H](C)c1ccccc1)[C@@H](C)c1ccccc1)[C@@H](C)c1ccccc1)[C@@H](C)c1ccccc1)[C@@H](C)c1ccccc1)[C@@H](C)c1ccccc1)[C@@H](C)c1ccccc1 | 1.3 | 12 | 9.5
CC(=O)N[C@@H](CCC(=O)N[C@@H](CCC(=O)N[C@@H](Cc1cnc[nH]1)C(=O)N[C@@H](CO)C(=O)N[C@@H](CO)C(=O)N[C@@H](CCCCN)C(=O)N[C@@H](CC(C)C)C(=O)N[C@@H](CCC(N)=O)C(=O)N(CCCCN)CC(=O)N(CC(=O)N(CC(=O)N(CCCCN)CC(=O)N(CC(=O)N(CC(=O)N(CCCCN)CC(=O)N(CC(=O)N(CC(=O)N(CCCCN)CC(=O)N(CC(=O)N(CC(N)=O)[C@@H](C)c1ccccc1)[C@@H](C)c1ccccc1)[C@@H](C)c1ccccc1)[C@@H](C)c1ccccc1)[C@@H](C)c1ccccc1)[C@@H](C)c1ccccc1)[C@@H](C)c1ccccc1)[C@@H](C)c1ccccc1)C(=O)O)C(=O)O (Ac-[γGlu][γGlu]HSSKLQ[Nlys][Nspe][Nspe][Nlys][Nspe][Nspe][Nlys][Nspe][Nspe][Nlys][Nspe][Nspe]-NH2) | 1.6 | 28 | 18
CC(=O)N[C@@H](CCC(=O)N[C@@H](CCC(=O)N[C@@H](CCC(=O)N[C@@H](Cc1cnc[nH]1)C(=O)N[C@@H](CO)C(=O)N[C@@H](CO)C(=O)N[C@@H](CCCCN)C(=O)N[C@@H](CC(C)C)C(=O)N[C@@H](CCC(N)=O)C(=O)N(CCCCN)CC(=O)N(CC(=O)N(CC(=O)N(CCCCN)CC(=O)N(CC(=O)N(CC(=O)N(CCCCN)CC(=O)N(CC(=O)N(CC(=O)N(CCCCN)CC(=O)N(CC(=O)N(CC(N)=O)[C@@H](C)c1ccccc1)[C@@H](C)c1ccccc1)[C@@H](C)c1ccccc1)[C@@H](C)c1ccccc1)[C@@H](C)c1ccccc1)[C@@H](C)c1ccccc1)[C@@H](C)c1ccccc1)[C@@H](C)c1ccccc1)C(=O)O)C(=O)O)C(=O)O (Ac-[γGlu][γGlu][γGlu]HSSKLQ[Nlys][Nspe][Nspe][Nlys][Nspe][Nspe][Nlys][Nspe][Nspe][Nlys][Nspe][Nspe]-NH2) | 1.2 | 37 | 31
CC(=O)N[C@@H](CCC(=O)N[C@@H](CCC(=O)N[C@@H](CCC(=O)N[C@@H](CCC(=O)N[C@@H](Cc1cnc[nH]1)C(=O)N[C@@H](CO)C(=O)N[C@@H](CO)C(=O)N[C@@H](CCCCN)C(=O)N[C@@H](CC(C)C)C(=O)N[C@@H](CCC(N)=O)C(=O)N(CCCCN)CC(=O)N(CC(=O)N(CC(=O)N(CCCCN)CC(=O)N(CC(=O)N(CC(=O)N(CCCCN)CC(=O)N(CC(=O)N(CC(=O)N(CCCCN)CC(=O)N(CC(=O)N(CC(N)=O)[C@@H](C)c1ccccc1)[C@@H](C)c1ccccc1)[C@@H](C)c1ccccc1)[C@@H](C)c1ccccc1)[C@@H](C)c1ccccc1)[C@@H](C)c1ccccc1)[C@@H](C)c1ccccc1)[C@@H](C)c1ccccc1)C(=O)O)C(=O)O)C(=O)O)C(=O)O (Ac-[γGlu][γGlu][γGlu][γGlu]HSSKLQ[Nlys][Nspe][Nspe][Nlys][Nspe][Nspe][Nlys][Nspe][Nspe][Nlys][Nspe][Nspe]-NH2) | 1.3 | 47 | 35
CC(C)C[C@H](NC(=O)[C@H](CCCCN)NC(=O)[C@H](CO)NC(=O)[C@H](CO)NC(=O)[C@@H](N)Cc1cnc[nH]1)C(=O)N[C@@H](CCC(N)=O)C(=O)N(CCCCN)CC(=O)N(CC(=O)N(CC(=O)N(CCCCN)CC(=O)N(CC(=O)N(CC(=O)N(CCCCN)CC(=O)N(CC(=O)N(CC(=O)N(CCCCN)CC(=O)N(CC(=O)N(CC(N)=O)[C@@H](C)c1ccccc1)[C@@H](C)c1ccccc1)[C@@H](C)c1ccccc1)[C@@H](C)c1ccccc1)[C@@H](C)c1ccccc1)[C@@H](C)c1ccccc1)[C@@H](C)c1ccccc1)[C@@H](C)c1ccccc1 (H-HSSKLQ[Nlys][Nspe][Nspe][Nlys][Nspe][Nspe][Nlys][Nspe][Nspe][Nlys][Nspe][Nspe]-NH2) | 2.1 | 19.6 | 9.2
C[C@@H](c1ccccc1)N(CC(N)=O)C(=O)CN(C(=O)CN(CCCCN)C(=O)CN(C(=O)CN(C(=O)CN(CCCCN)C(=O)CN(C(=O)CN(C(=O)CN(CCCCN)C(=O)CN(C(=O)CN(C(=O)CN(CCCCN)C(=O)[C@@H]1CCCN1C(=O)[C@H](CO)NC(=O)[C@H](CO)NC(=O)[C@H](CCC(N)=O)NC(=O)[C@@H](NC(=O)[C@H](CO)NC(=O)[C@H](CO)NC(=O)[C@@H]1C[C@@H](O)CN1)C1CCCCC1)[C@@H](C)c1ccccc1)[C@@H](C)c1ccccc1)[C@@H](C)c1ccccc1)[C@@H](C)c1ccccc1)[C@@H](C)c1ccccc1)[C@@H](C)c1ccccc1)[C@@H](C)c1ccccc1 (H-[Hyp]SS[Chg]QSSP[Nlys][Nspe][Nspe][Nlys][Nspe][Nspe][Nlys][Nspe][Nspe][Nlys][Nspe][Nspe]-NH2) | 2.1 | 35 | 17
CC(C)C[C@H](NC(=O)[C@H](CCCCN)NC(=O)[C@H](CO)NC(=O)[C@H](CO)NC(=O)[C@H](Cc1cnc[nH]1)NC(=O)CNCCCCN)C(=O)N[C@@H](CCC(N)=O)C(=O)N(CC(=O)N(CC(=O)N(CCCCN)CC(=O)N(CC(=O)N(CC(=O)N(CCCCN)CC(=O)N(CC(=O)N(CC(=O)N(CCCCN)CC(=O)N(CC(=O)N(CC(N)=O)[C@@H](C)c1ccccc1)[C@@H](C)c1ccccc1)[C@@H](C)c1ccccc1)[C@@H](C)c1ccccc1)[C@@H](C)c1ccccc1)[C@@H](C)c1ccccc1)[C@@H](C)c1ccccc1)[C@@H](C)c1ccccc1 (H-[Nlys]HSSKLQ[Nspe][Nspe][Nlys][Nspe][Nspe][Nlys][Nspe][Nspe][Nlys][Nspe][Nspe]-NH2) | 3 | 16.9 | 5.7
CC(C)C[C@H](NC(=O)[C@H](CCCCN)NC(=O)[C@H](CO)NC(=O)[C@H](CO)NC(=O)[C@H](Cc1cnc[nH]1)NC(=O)CN(CCCCN)C(=O)CN(C(=O)CN(C(=O)CNCCCCN)[C@@H](C)c1ccccc1)[C@@H](C)c1ccccc1)C(=O)N[C@@H](CCC(N)=O)C(=O)N(CC(=O)N(CC(=O)N(CCCCN)CC(=O)N(CC(=O)N(CC(=O)N(CCCCN)CC(=O)N(CC(=O)N(CC(=O)N(CCCCN)CC(N)=O)[C@@H](C)c1ccccc1)[C@@H](C)c1ccccc1)[C@@H](C)c1ccccc1)[C@@H](C)c1ccccc1)[C@@H](C)c1ccccc1)[C@@H](C)c1ccccc1 (H-[Nlys][Nspe][Nspe][Nlys]HSSKLQ[Nspe][Nspe][Nlys][Nspe][Nspe][Nlys][Nspe][Nspe][Nlys]-NH2) | 3.2 | 19.1 | 5.9
C[C@@H](c1ccccc1)N(CC(N)=O)C(=O)CN(C(=O)CN(CCCCN)C(=O)CN(C(=O)CN(C(=O)CN(CCCCN)C(=O)CN(C(=O)CN(C(=O)CN(CCCCN)C(=O)CN(C(=O)CN(C(=O)CNCCCCN)[C@@H](C)c1ccccc1)[C@@H](C)c1ccccc1)[C@@H](C)c1ccccc1)[C@@H](C)c1ccccc1)[C@@H](C)c1ccccc1)[C@@H](C)c1ccccc1)[C@@H](C)c1ccccc1 (H-[Nlys][Nspe][Nspe][Nlys][Nspe][Nspe][Nlys][Nspe][Nspe][Nlys][Nspe][Nspe]-NH2) | 1.7 | 8.5 | 5
CC(C)C[C@H](NC(=O)[C@H](CCCCN)NC(=O)[C@H](CO)NC(=O)[C@H](CO)NC(=O)[C@H](Cc1cnc[nH]1)NC(=O)CC[C@H](NC(=O)CC[C@H](NC(=O)CC[C@H](NC(=O)CC[C@H](N)C(=O)O)C(=O)O)C(=O)O)C(=O)O)C(=O)N[C@@H](CCC(N)=O)C(=O)N(CCCCN)CC(=O)N(CC(=O)N(CC(=O)N(CCCCN)CC(=O)N(CC(=O)N(CC(=O)N(CCCCN)CC(=O)N(CC(=O)N(CC(=O)N(CCCCN)CC(=O)N(CC(=O)N(CC(N)=O)[C@@H](C)c1ccccc1)[C@@H](C)c1ccccc1)[C@@H](C)c1ccccc1)[C@@H](C)c1ccccc1)[C@@H](C)c1ccccc1)[C@@H](C)c1ccccc1)[C@@H](C)c1ccccc1)[C@@H](C)c1ccccc1 ({γGlu-γGlu-γGlu-γGlu}-HSSKLQ[Nlys][Nspe][Nspe][Nlys][Nspe][Nspe][Nlys][Nspe][Nspe][Nlys][Nspe][Nspe]-NH2) | 2.1 | 36 | 17
CC(C)C[C@H](NC(=O)[C@H](CCCCN)NC(=O)[C@H](CO)NC(=O)[C@H](CO)NC(=O)[C@H](Cc1cnc[nH]1)NC(=O)CC[C@H](NC(=O)CC[C@H](NC(=O)CC[C@H](N)C(=O)O)C(=O)O)C(=O)O)C(=O)N[C@@H](CCC(N)=O)C(=O)N(CCCCN)CC(=O)N(CC(=O)N(CC(=O)N(CCCCN)CC(=O)N(CC(=O)N(CC(=O)N(CCCCN)CC(=O)N(CC(=O)N(CC(=O)N(CCCCN)CC(=O)N(CC(=O)N(CC(N)=O)[C@@H](C)c1ccccc1)[C@@H](C)c1ccccc1)[C@@H](C)c1ccccc1)[C@@H](C)c1ccccc1)[C@@H](C)c1ccccc1)[C@@H](C)c1ccccc1)[C@@H](C)c1ccccc1)[C@@H](C)c1ccccc1 ({γGlu-γGlu-γGlu}-HSSKLQ[Nlys][Nspe][Nspe][Nlys][Nspe][Nspe][Nlys][Nspe][Nspe][Nlys][Nspe][Nspe]-NH2) | 2 | 34 | 17
C[C@@H](c1ccccc1)N(CC(N)=O)C(=O)CN(C(=O)CN(CCCCN)C(=O)CN(C(=O)CN(C(=O)CN(CCCCN)C(=O)CN(C(=O)CN(C(=O)CN(CCCCN)C(=O)CN(C(=O)CN(C(=O)CN(CCCCN)C(=O)CC[C@H](NC(=O)CC[C@H](NC(=O)CC[C@H](N)C(=O)O)C(=O)O)C(=O)O)[C@@H](C)c1ccccc1)[C@@H](C)c1ccccc1)[C@@H](C)c1ccccc1)[C@@H](C)c1ccccc1)[C@@H](C)c1ccccc1)[C@@H](C)c1ccccc1)[C@@H](C)c1ccccc1 ({γGlu-γGlu-γGlu}-[Nlys][Nspe][Nspe][Nlys][Nspe][Nspe][Nlys][Nspe][Nspe][Nlys][Nspe][Nspe]-NH2) | 1.1 | 17 | 15
